These results are taken from ChEMBL document CHEMBL1201862, “PubChem BioAssay data set” (2004).

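Cells were grown in 96-well plates and exposed to each compound for 48 hours at five concentrations; endpoints were interpolated linearly between bracketing concentrations, or set to the highest concentration if not reached. GI50 = concentration required for 50% inhibition of growth.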 Calls of active or inactive are those of the source. No stated cut-off is given here; in the data, active = GI50 up to about 1.1 µM and inactive = higher.

Among the test systems are 786-0; HOP-62; IGROV-1; KM12; MOLT-4; NCI-H23; SF-295; SK-MEL-2; SK-MEL-5; TK-10; ACHN; CCRF-CEM; NCI-H522; SN12C; HCT-15; LOX IMVI.
Common to all, as to assay: NCI tumour cell line growth inhibition, 48 h

Regarding `CCc1ccc(/C(C)=N/NC(N)=S)cc1`, the GI50 in the test with 786-0 was > 100 µM (inactive); in the test on HOP-62, > 100 µM (inactive); in the test with IGROV-1 it was > 100 µM (inactive); in the test with KM12, > 100 µM (inactive); with MOLT-4 it was 17.2 µM (inactive); with NCI-H23, > 100 µM (inactive). Besides, the GI50 with SF-295 is > 100 µM (inactive); in the test with SK-MEL-2, > 100 µM (inactive); in the test with SK-MEL-5, 78.2 µM (inactive); in the test with TK-10, > 100 µM (inactive).

Turning to `COC(=O)c1nc(-c2ccc(Cl)c(Cl)c2)nc2ccc(Cl)cc12`, the GI50 in the test with 786-0 was 27.5 µM (inactive); in the test on ACHN, 44.6 µM (inactive); in the test on CCRF-CEM, > 10 µM (inactive); in the test with IGROV-1 it was 94.4 µM (inactive); in the test with KM12, > 100 µM (inactive); in the test with MOLT-4 it was > 10 µM (inactive). For the same molecule, the GI50 in the test with NCI-H23 was 68.5 µM (inactive); with NCI-H522, > 10 µM (inactive); with SF-295, 37.7 µM (inactive); in the test with SK-MEL-2, > 100 µM (inactive); in the test on SK-MEL-5, > 100 µM (inactive); with SN12C it was > 100 µM (inactive). In the test with TK-10, the GI50 is 44 µM (inactive).

For `O=C(CCc1n[nH]c(=S)o1)Nc1cc(Cl)ccc1Cl`, the GI50 in the test with 786-0 is 29.6 µM (inactive); in the test on ACHN, 61.1 µM (inactive); with CCRF-CEM it was 33.8 µM (inactive); in the test with HCT-15, 20.7 µM; in the test on HOP-62, > 100 µM (inactive); with IGROV-1, > 100 µM (inactive). The GI50 with KM12, with MOLT-4, in the test on NCI-H23, in the test with SF-295, in the test with SK-MEL-5 and with SN12C was > 100 µM (inactive) throughout. Besides, the GI50 in the test with TK-10 is > 100 µM (inactive).

As to `O=C(N/C(=C\c1cccc([N+](=O)[O-])c1)c1nc2ccccc2[nH]1)c1ccccc1`, the GI50 in the test on 786-0 was 55.2 µM (inactive); with ACHN, 51.4 µM (inactive); in the test on CCRF-CEM, 34.4 µM (inactive); in the test on HCT-15, 26.1 µM; in the test on HOP-62, 42.8 µM (inactive); in the test with IGROV-1 it was 91.4 µM (inactive). Also, the GI50 in the test with KM12 was 69 µM (inactive); in the test on MOLT-4 it was 32.9 µM (inactive); in the test on NCI-H23 it was 49.1 µM (inactive); with NCI-H522, 36.8 µM (inactive); with SK-MEL-2, 66.7 µM (inactive); in the test on SK-MEL-5 it was 41.1 µM (inactive). Further, in the test on SN12C, the GI50 is 68.7 µM (inactive).

In the case of `CC(C)(C)NC(=O)NC12CC3CC(CC(F)(C3)C1)C2`, the GI50 in the test with 786-0, in the test with ACHN, in the test with CCRF-CEM, in the test with HOP-62, in the test on IGROV-1 and with KM12 was > 100 µM (inactive) throughout. For the same molecule, the GI50 in the test with LOX IMVI, in the test on MOLT-4, in the test with NCI-H23, with NCI-H522, in the test on SK-MEL-2 and in the test with TK-10 was > 100 µM (inactive) throughout.

For `C[Si](C)(C)/C=C\CCO`, the GI50 in the test on 786-0 is > 100 µM (inactive); in the test with ACHN, > 100 µM (inactive); with CCRF-CEM, > 100 µM (inactive); in the test with HCT-15, above 100 µM; in the test with IGROV-1 it was > 100 µM (inactive); in the test on KM12 it was > 100 µM (inactive). For the same molecule, the GI50 in the test on LOX IMVI, with MOLT-4, with NCI-H23, in the test with NCI-H522, in the test on SF-295 and with SK-MEL-2 was > 100 µM (inactive) each time. In addition, the GI50 in the test with SK-MEL-5, with SN12C and with TK-10 was > 100 µM (inactive) throughout.

For `COC(=O)C1=C(c2cc(OC)c(OC)c(OC)c2)OC(c2ccc3c(c2)OCO3)C1` (centres undefined), the GI50 with 786-0 was 35.2 µM (inactive); with ACHN, 26.3 µM (inactive); in the test on CCRF-CEM, 27.6 µM (inactive); in the test on HCT-15, 19.1 µM; in the test on HOP-62, 35.7 µM (inactive); with IGROV-1, 2.12 µM (inactive). Besides, the GI50 in the test on KM12 was 13.2 µM (inactive); with LOX IMVI it was 6.28 µM (inactive); in the test on MOLT-4, 15.8 µM (inactive); in the test on NCI-H23, 25.7 µM (inactive); in the test with SF-295, 18.5 µM (inactive); in the test on SK-MEL-5 it was 19.1 µM (inactive). Besides, the GI50 was 20.3 µM (inactive) with SN12C and 80 µM (inactive) in the test with TK-10.

On to `CN(C)C(=O)NC(=S)N(C)C`, for which the GI50 in the test on 786-0 is > 100 µM (inactive); in the test on ACHN, > 100 µM (inactive); in the test with CCRF-CEM it was > 100 µM (inactive); in the test with HCT-15 it was 17.1 µM; in the test with HOP-62, 0.294 µM (active); with IGROV-1, > 100 µM (inactive). Moreover, the GI50 in the test on KM12, with MOLT-4, in the test on NCI-H23, in the test on NCI-H522, with SF-295 and in the test with SK-MEL-2 was > 100 µM (inactive) each time. The GI50 in the test on SK-MEL-5, in the test with SN12C and in the test on TK-10 was > 100 µM (inactive) throughout.

`Nc1ncnc2c1ncn2CCOC(c1ccccc1)P(=O)(O)O` (centres undefined): the GI50 in the test on 786-0 is > 100 µM (inactive); with ACHN, > 100 µM (inactive); in the test with CCRF-CEM, > 100 µM (inactive); in the test on HCT-15, above 100 µM; in the test on IGROV-1, > 100 µM (inactive); in the test with KM12, > 100 µM (inactive). The GI50 in the test with LOX IMVI, in the test on MOLT-4, in the test on NCI-H23, with NCI-H522, in the test on SF-295 and in the test on SK-MEL-2 was > 100 µM (inactive) each time. Besides, the GI50 in the test on SK-MEL-5, in the test with SN12C and with TK-10 was > 100 µM (inactive) throughout.

As for `C/C(=C\CC/C=C(\C)CC/C=C(\C)CCC1SC1(C)C)CC/C=C(\C)CCC1OC1(C)C` (centres undefined), the GI50 was > 100 µM (inactive) in the test with 786-0; > 100 µM (inactive) in the test with ACHN; > 100 µM (inactive) with CCRF-CEM; above 100 µM in the test with HCT-15; > 100 µM (inactive) in the test with IGROV-1; > 100 µM (inactive) with KM12. The GI50 is > 100 µM (inactive) in the test with MOLT-4; > 100 µM (inactive) in the test with NCI-H23; 47.3 µM (inactive) with NCI-H522; > 100 µM (inactive) with SF-295; > 100 µM (inactive) in the test on SK-MEL-2; > 100 µM (inactive) in the test on SK-MEL-5. Besides, the GI50 in the test with SN12C and with TK-10 was > 100 µM (inactive) throughout.

For `c1ccc(C2(c3ccccc3)SSC3(S2)C2CC4CC(C2)CC3C4)cc1` (centres undefined), the GI50 was > 100 µM (inactive) in the test on 786-0; > 100 µM (inactive) with ACHN; 39.7 µM (inactive) with CCRF-CEM; above 100 µM with HCT-15; > 100 µM (inactive) with IGROV-1; > 100 µM (inactive) in the test on KM12. Also, the GI50 is > 100 µM (inactive) in the test with LOX IMVI; > 56.6 µM (inactive) in the test with MOLT-4; > 100 µM (inactive) with NCI-H23; > 100 µM (inactive) with SF-295; > 100 µM (inactive) in the test with SK-MEL-2; > 100 µM (inactive) in the test with SK-MEL-5. The GI50 in the test on SN12C and in the test on TK-10 was > 100 µM (inactive) in each case.

In the case of `O=C(O)/C(Cl)=C(\Cl)C(=O)NC1C2CC3CC(C2)CC1C3` (centres undefined), the GI50 in the test with 786-0 is > 100 µM (inactive); in the test on ACHN, > 100 µM (inactive); with CCRF-CEM it was > 100 µM (inactive); in the test with HCT-15 it was above 100 µM; in the test with HOP-62, > 100 µM (inactive); in the test with IGROV-1 it was > 100 µM (inactive). Moreover, the GI50 with KM12 is 9.64 µM (inactive); with LOX IMVI, > 100 µM (inactive); in the test on MOLT-4, > 100 µM (inactive); in the test on NCI-H23, > 100 µM (inactive); in the test with NCI-H522, > 100 µM (inactive); with SF-295, > 100 µM (inactive). In addition, the GI50 with SK-MEL-5 and with SN12C was > 100 µM (inactive) throughout.

In the case of `Cc1ccc(C2=C(c3ccc(C)cc3)C(c3ccc(C)cc3)=C(c3ccc(C)cc3)C2=O)cc1`, the GI50 is > 100 µM (inactive) in the test on 786-0; > 100 µM (inactive) in the test with ACHN; > 100 µM (inactive) in the test on CCRF-CEM; above 100 µM with HCT-15; > 100 µM (inactive) with HOP-62; > 100 µM (inactive) in the test on IGROV-1. In addition, the GI50 with KM12, in the test with MOLT-4, with NCI-H23, in the test with NCI-H522, with SF-295 and in the test on SK-MEL-2 was > 100 µM (inactive) throughout. In addition, the GI50 in the test with SK-MEL-5, in the test with SN12C and with TK-10 was > 100 µM (inactive) throughout.

As for `CC12CC3C(CC1SCC(=O)O2)C3(C)C` (centres undefined), the GI50 in the test with 786-0 is > 100 µM (inactive); with ACHN it was > 100 µM (inactive); with CCRF-CEM it was > 100 µM (inactive); in the test on HCT-15, above 100 µM; in the test on IGROV-1, > 100 µM (inactive); with KM12, > 100 µM (inactive). Also, the GI50 in the test on MOLT-4, in the test with NCI-H23, with SF-295, with SK-MEL-2, in the test with SK-MEL-5 and in the test with SN12C was > 100 µM (inactive) throughout. Also, the GI50 with TK-10 is > 100 µM (inactive).

Turning to `CC(CC(=O)N1C(=O)C(C)(C)[C@@H](O)[C@H]1CC(C)C(Cl)(Cl)Cl)C(Cl)(Cl)Cl` (some centres undefined), the GI50 in the test on 786-0 is > 100 µM (inactive); in the test on ACHN, > 100 µM (inactive); in the test with CCRF-CEM, > 100 µM (inactive); in the test on HCT-15 it was above 100 µM; in the test on HOP-62, > 100 µM (inactive); with IGROV-1 it was > 100 µM (inactive). The GI50 in the test with KM12, with LOX IMVI, with MOLT-4, in the test on NCI-H522, with SF-295 and with SK-MEL-5 was > 100 µM (inactive) each time. For the same molecule, the GI50 with SN12C and in the test with TK-10 was > 100 µM (inactive) throughout.
